Among the data in ChEMBL document CHEMBL5096161, “Medulloblastoma drugs in development: Current leads, trials and drawbacks” (Eur J Med Chem, 2021) are IC50, inhibition in vivo and MST values, retold here.

Structures are written as SMILES.

Assay [1] can be described thus: Anticancer activity against human MED-MEB-8A cells assessed as reduction in cell viability incubated for 72 hrs. The class given is functional, cell-based.
For a further assay, the system named is D283 Med. The experiment in a line: Anticancer activity against human D283 Med cells assessed as reduction in cell viability incubated for 72 hrs. Type of assay: functional, cell-based.
A short description of assay [2]: Antitumor activity against human D384 Med cells assessed as reduction in cell viability incubated for 24 hrs by Alamar blue assay. Type of assay: functional, cell-based. For orientation: The colour change of resazurin is a common sign of viable cells or microbes.
Assay [3] is described as follows: Antitumor activity against human D425 Med cells assessed as reduction in cell viability incubated for 24 hrs by Alamar blue assay. The class given is functional, cell-based.
A short description of assay [4]: Antitumor activity against human D341 Med cells assessed as reduction in cell viability incubated for 24 hrs by Alamar blue assay. Type of assay: functional, cell-based.
The test system of another assay is ONS-76. The experiment in a line: Antitumor activity against human ONS-76 cells xenografted in athymic nude mouse assessed as inhibition of tumor growth at 100 mg/kg, po QD for 9 days. Type of assay: functional. Particulars: ONS-76, 216 h, time 9 day, read-out: TGI.
Assay [5] has as its target Vascular endothelial growth factor receptor 2 (Homo sapiens, UniProt P35968). The assay is described as follows: Inhibition of human VEGFR2 (789 to 1356 residues) assessed as reduction in autophosphorylation at Y1175 residues using poly (Glu4Tyr1) peptide and ATP as substrate incubated for 60 mins by ADP-Glo Kinase Assay. Background: ADP-Glo first removes unused ATP, then detects ADP through luciferase.

The next assay deals with Mus musculus. The experiment in a line: Antitumor activity in Ptch+/- p53-/- mutant mouse medulloblastoma allograft model assessed as increase in survival rate at 50 mg/kg, po QD relative to control (Rvb=75 days). The class given is functional.

Sequence of Vascular endothelial growth factor receptor 2 (P35968 whole entry, the tested form may be a part): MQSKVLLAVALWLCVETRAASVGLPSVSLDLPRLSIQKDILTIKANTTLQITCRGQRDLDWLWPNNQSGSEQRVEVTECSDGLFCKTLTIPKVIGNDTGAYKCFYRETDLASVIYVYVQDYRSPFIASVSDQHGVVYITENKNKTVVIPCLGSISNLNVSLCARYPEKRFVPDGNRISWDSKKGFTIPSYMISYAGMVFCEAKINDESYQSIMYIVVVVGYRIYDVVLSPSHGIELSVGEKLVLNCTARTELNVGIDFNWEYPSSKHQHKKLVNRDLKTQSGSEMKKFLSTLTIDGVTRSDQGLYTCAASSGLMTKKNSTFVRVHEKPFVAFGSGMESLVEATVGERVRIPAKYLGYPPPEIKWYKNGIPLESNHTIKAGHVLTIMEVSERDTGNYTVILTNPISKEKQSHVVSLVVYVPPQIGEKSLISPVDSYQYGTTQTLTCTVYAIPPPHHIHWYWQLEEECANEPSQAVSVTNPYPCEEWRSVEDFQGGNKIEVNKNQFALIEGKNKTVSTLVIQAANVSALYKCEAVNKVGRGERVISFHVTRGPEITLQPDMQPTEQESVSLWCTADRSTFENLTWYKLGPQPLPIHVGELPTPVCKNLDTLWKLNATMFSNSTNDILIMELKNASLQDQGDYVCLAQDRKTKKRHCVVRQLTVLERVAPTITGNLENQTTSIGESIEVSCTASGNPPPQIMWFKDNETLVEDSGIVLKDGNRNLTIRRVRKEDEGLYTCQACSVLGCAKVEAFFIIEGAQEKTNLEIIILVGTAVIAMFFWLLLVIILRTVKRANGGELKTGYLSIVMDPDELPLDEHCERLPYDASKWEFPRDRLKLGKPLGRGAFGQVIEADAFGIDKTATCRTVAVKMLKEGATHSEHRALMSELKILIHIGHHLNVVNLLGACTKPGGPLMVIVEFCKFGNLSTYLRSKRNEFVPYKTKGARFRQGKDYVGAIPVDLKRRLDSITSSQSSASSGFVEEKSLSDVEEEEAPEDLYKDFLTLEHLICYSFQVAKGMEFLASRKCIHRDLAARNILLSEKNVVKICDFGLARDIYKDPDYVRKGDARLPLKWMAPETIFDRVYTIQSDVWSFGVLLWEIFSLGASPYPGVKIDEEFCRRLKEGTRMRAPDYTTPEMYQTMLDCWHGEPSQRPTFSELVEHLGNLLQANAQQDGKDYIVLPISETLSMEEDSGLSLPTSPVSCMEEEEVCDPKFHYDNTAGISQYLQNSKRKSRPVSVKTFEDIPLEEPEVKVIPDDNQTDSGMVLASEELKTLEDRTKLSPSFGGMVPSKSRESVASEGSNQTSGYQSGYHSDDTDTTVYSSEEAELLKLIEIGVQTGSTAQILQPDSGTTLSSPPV

Consider `C[C@H]1O[C@@H](O[C@H]2[C@@H](O)C[C@H](O[C@H]3[C@@H](O)C[C@H](O[C@H]4CC[C@@]5(C)[C@H](CC[C@@H]6[C@@H]5C[C@@H](O)[C@]5(C)[C@@H](C7=CC(=O)OC7)CC[C@]65O)C4)O[C@@H]3C)O[C@@H]2C)C[C@H](O)[C@@H]1O` [DIGOXIN], for which the IC50 in assay [1] is 0.106 µM; in the assay with D283 Med, 0.01 µM.
As to `CCCCCCCCc1ccc(CCC(N)(CO)CO)cc1` [FINGOLIMOD], the results for the IC50 in assay [2], in assay [3] and in assay [4] were 7.3 µM, 7.5 µM and 5.5 µM, respectively.
Take `COc1cc2c(Oc3ccc(NC(=O)C4(C(=O)Nc5ccc(F)cc5)CC4)cc3F)ccnc2cc1OCCCN1CCOCC1` [FORETINIB]: the inhibition in vivo at 100 mg/kg in the assay on ONS-76 worked out at 50%.
Take `COC(=O)Nc1nc2cc(C(=O)c3ccccc3)ccc2[nH]1` [MEBENDAZOLE]: the IC50 in assay [5] came out at 4.3 µM. For the same compound, the MST in the assay on Mus musculus was 113 days.

As a reminder, the IC50 is the concentration that gives 50% inhibition.
